We go through one compound from paper PMC7700809 (Molecular Biomedicine, 2020).

For orientation: pEC50 means −log10 of the EC50, conventionally taken in molar units.

pEC50: −log10 of the molar value.

The test system of test [1] is SARS-CoV-2. Kind of test: microbe, parasite or virus in culture. The settings on record: Severe acute respiratory syndrome coronavirus 2, Vero, read-out: EC50 antiviral replication effect. The format is cell-based.
The test system of test [2] is SARS-CoV-2. Kind of test: microbe, parasite or virus in culture. The format is cell-based.

Regarding `CCC(CC)COC(=O)[C@H](C)N[P@](=O)(OC[C@H]1O[C@@](C#N)(c2ccc3c(N)ncnn23)[C@H](O)[C@@H]1O)Oc1ccccc1` [Remdesivir], the pEC50 with SARS-CoV-2 [1] was 6.62. Also, the virus entry blocking entry with SARS-CoV-2 [2] is given as “could not block the virus entry”.
